Measured values: patent US9029389B2 (Institut Pasteur Korea, priority 2011, dated 2015)

What was measured:
Human 5-lipoxygenase = target: T1, Human 5-lipoxygenase (Homo sapiens, UniProt P09917); test: Activity of compounds against 5-LO enzyme (LTB4 measurement and/or fluorescence method); type: biochemical; details: for inhibition at 10 µM: 5-LO, single concentration of 10 uM in duplicate; for IC50: 6 or 11 point dose response in duplicate
T1 construct: purchased Cayman 60402; host or cells: insect cells
T1 sequence (P09917 1-674): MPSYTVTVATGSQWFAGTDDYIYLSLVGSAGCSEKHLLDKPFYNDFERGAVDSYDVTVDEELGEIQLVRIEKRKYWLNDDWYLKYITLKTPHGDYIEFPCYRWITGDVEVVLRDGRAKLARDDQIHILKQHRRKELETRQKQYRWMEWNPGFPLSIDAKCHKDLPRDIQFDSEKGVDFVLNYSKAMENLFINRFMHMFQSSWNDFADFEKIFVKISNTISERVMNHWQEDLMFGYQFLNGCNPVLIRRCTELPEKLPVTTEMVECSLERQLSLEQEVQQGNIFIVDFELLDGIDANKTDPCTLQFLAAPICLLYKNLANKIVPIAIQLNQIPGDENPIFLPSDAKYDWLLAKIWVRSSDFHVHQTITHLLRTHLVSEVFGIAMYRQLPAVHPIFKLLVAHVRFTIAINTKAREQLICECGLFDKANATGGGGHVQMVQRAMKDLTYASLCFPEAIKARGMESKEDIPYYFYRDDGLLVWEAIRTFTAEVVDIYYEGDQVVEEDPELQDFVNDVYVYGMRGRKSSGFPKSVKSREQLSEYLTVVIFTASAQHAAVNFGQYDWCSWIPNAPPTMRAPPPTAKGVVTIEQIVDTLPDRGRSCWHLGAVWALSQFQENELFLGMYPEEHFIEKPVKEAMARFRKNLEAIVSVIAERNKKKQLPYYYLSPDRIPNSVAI
Procedure, shortened: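 Two read-outs: LTB4 measured by EIA and/or LC/MS/MS with LTB4-d4 standard after 15 min RT compound preincubation with insect-cell 5-LO and a 5 min 37 °C reaction on 3 uM arachidonic acid (0.1 mM ATP, pH 7.4). The room-temperature fluorescence format used 20 uM H2DCFDA, 100 uM ATP, 3 uM arachidonic acid, 5 min; IC50 from 6/11-point curves.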

| Compound | inhibition at 10 µM (Human 5-lipoxygenase) | melting point | IC50 (Human 5-lipoxygenase) |
| --- | --- | --- | --- |
| CCc1nc2c(C(F)(F)F)cccn2c1C(=O)NCc1ccc(N2CCOCC2)cc1 [compound 274, 2-Ethyl-N-(4-morpholinobenzyl)-8-(trifluoromethyl)imidazo[1,2-a]pyridine-3-carboxamide] | < 40% | 200.6 °C | – |
| CCc1nc2cc(-c3cccnc3)ccn2c1C(=O)NCc1ccc(N2CCOCC2)cc1 [compound 305, 2-Ethyl-N-(4-morpholinobenzyl)-7-(pyridin-3-yl)imidazo[1,2-a]pyridine-3-carboxamide] | < 40% | 208.5 °C | – |
| Cc1nc2cccc(C)n2c1CNc1ccc(N2CCN(c3ccc(F)cc3)CC2)cc1 [compound 402, N-((2,5-dimethylimidazo[1,2-a]pyridin-3-yl)methyl)-4-(4-(4-fluorophenyl)piperazin-1-yl)aniline] | – | 196.4 °C | < 1000 nM |
| CCc1nc2ccc(F)cn2c1C(=O)NC1CCN(c2ccc(Nc3ccccc3)cc2)C1 (centres unmarked) [compound 403, 2-Ethyl-6-fluoro-N-(1-(4-(phenylamino)phenyl)pyrrolidin-3-yl)imidazo[1,2-a]pyridine-3-carboxamide] | – | 224.7 °C | < 1000 nM |
| CCc1nc2cc(-c3ccncc3)ccn2c1C(=O)NCc1ccc(N2CCOCC2)cc1 [compound 255, 2-Ethyl-N-(4-morpholinobenzyl)-7-(pyridin-4-yl)imidazo[1,2-a]pyridine-3-carboxamide] | < 40% | 210.1 °C | – |
| CCc1nc2ccc(Cl)cn2c1C(=O)NCc1ccc(N2CCC(c3ccc(F)cc3)CC2)cc1 [compound 249, 6-Chloro-2-ethyl-N-(4-(4-(4-fluorophenyl)piperidin-1-yl)benzyl)imidazo[1,2-a]pyridine-3-carboxamide] | 40 to 69% | 164 °C | – |
| CCc1nc2ccc(Cl)cn2c1C(=O)NCc1ccc(N2CCOCC2)c(Cl)c1 [compound 302, 6-Chloro-N-(3-chloro-4-morpholinobenzyl)-2-ethylimidazo[1,2-a]pyridine-3-carboxamide] | < 40% | 175.5 °C | – |
| CCc1nc2ccc(Cl)cn2c1C(=O)NCc1ccc(N2CCC(COC)CC2)cc1 [compound 247, 6-Chloro-2-ethyl-N-(4-(4-(methoxymethyl)piperidin-1-yl)benzyl)imidazo[1,2-a]pyridine-3-carboxamide] | 40 to 69% | 162.1 °C | – |
| CCc1nc2ccc(OC)cn2c1C(=O)NCc1ccc(N2CCN(c3ccc(F)cc3)CC2)cc1 [compound 271, 2-Ethyl-N-(4-(4-(4-fluorophenyl)piperazin-1-yl)benzyl)-6-methoxyimidazo[1,2-a]pyridine-3-carboxamide] | 40 to 69% | 173.8 °C | – |
| CCc1nc2cc(Cl)ccn2c1COc1ccc(N2CCN(c3ccc(F)cc3)CC2)cc1 [compound 400, 7-chloro-2-ethyl-3-((4-(4-(4-fluorophenyl)piperazin-1-yl)phenoxy)methyl)imidazo[1,2-a]pyridine] | – | 167.5 °C | < 1000 nM |
| CCc1nc2ccc(Cl)cn2c1C(=O)NCc1ccc(N2CCN3CCCC3C2)cc1 (centres unmarked) [compound 237, 6-Chloro-2-ethyl-N-(4-(hexahydropyrrolo[1,2-a]pyrazin-2(1H)-yl)benzyl)imidazo[1,2-a]pyridine-3-carboxamide] | < 40% | 163 °C | – |
| CCc1nc2ccc(Cl)cn2c1C(=O)NCc1ccc(N2CCC(C(F)(F)F)CC2)cc1 [compound 233, 6-Chloro-2-ethyl-N-(4-(4-(trifluoromethyl)piperidin-1-yl)benzyl)imidazo[1,2-a]pyridine-3-carboxamide] | 40 to 69% | 197.9 °C | – |
| CCc1nc2cc(N3CCN(Cc4ccc(F)cc4)CC3)ccn2c1C(=O)NCc1ccc(N2CCOCC2)cc1 [compound 257, 2-Ethyl-7-(4-(4-fluorobenzyl)piperazin-1-yl)-N-(4-morpholinobenzyl)imidazo[1,2-a]pyridine-3-carboxamide] | 40 to 69% | 212.5 °C | – |
| CCc1nc2ccc(Cl)cn2c1C(=O)NCc1cccc(N2CCN(c3ccc(OC(F)(F)F)cc3)CC2)c1 [compound 356, 6-chloro-2-ethyl-N-(3-(4-(4-(trifluoromethoxy)phenyl)piperazin-1-yl)benzyl)imidazo[1,2-a]pyridine-3-carboxamide] | 40 to 69% | > 168 °C (dec.) | – |
| CCc1nc2cc(Cl)ccn2c1C(=O)NCc1ccc(N2CCC(Cc3ccccc3)CC2)cc1 [compound 208, N-(4-(4-Benzylpiperidin-1-yl)benzyl)-7-chloro-2-ethylimidazo[1,2-a]pyridine-3-carboxamide] | > 69% | 63.8 °C | 1000 to 20000 nM |
| CCc1nc2ccc(F)cn2c1C(=O)NCc1ccc(Oc2ccc(OC(F)(F)F)cc2)cc1 [compound 225, 2-Ethyl-6-fluoro-N-(4-(4-(trifluoromethoxy)phenoxy)benzyl)imidazo[1,2-a]pyridine-3-carboxamide] | > 69% | 133.4 °C | < 1000 nM |
| CCc1nc2ccc(Br)cn2c1C(=O)NCc1ccc(N2CCOCC2)cc1 [compound 240, 6-Bromo-2-ethyl-N-(4-morpholinobenzyl)imidazo[1,2-a]pyridine-3-carboxamide] | < 40% | 228.2 °C | – |
| CCc1nc2ccc(Cl)cn2c1C(=O)NCc1ccc(N2CCC(COc3ccc(OC(F)(F)F)cc3)CC2)cc1 [compound 213, 6-chloro-2-ethyl-N-(4-(4-((4-(trifluoromethoxy)phenoxy)methyl)piperidin-1-yl)benzyl)imidazo[1,2-a]pyridine-3-carboxamide] | < 40% | 183.6 °C | – |
| CCc1nc2cc(C)ccn2c1C(=O)NCc1ccc2ccccc2c1 [compound 95, 2-Ethyl-7-methyl-N-(naphthalen-2-ylmethyl)imidazo[1,2-a]pyridine-3-carboxamide] | 40 to 69% | 192 °C | – |
| CCc1nc2ccc(Cl)cn2c1C(=O)NCc1ccc(Oc2ccc(OC(F)(F)F)cc2)nc1 [compound 189, 6-Chloro-2-ethyl-N-((6-(4-(trifluoromethoxy)phenoxy)pyridin-3-yl)methyl)imidazo[1,2-a]pyridine-3-carboxamide] | > 69% | 154 to 155 °C | < 1000 nM |
| CCc1nc2cc(Cl)ccn2c1C(=O)NCc1ccc(N2CC(Cc3ccc(F)cc3)OC2=O)cc1 (centres unmarked) [compound 377, 7-chloro-2-ethyl-N-(4-(5-(4-fluorobenzyl)-2-oxooxazolidin-3-yl)benzyl)imidazo[1,2-a]pyridine-3-carboxamide] | < 40% | > 96.9 °C (dec.) | – |
| CCc1nc2ccc(Br)cn2c1C(=O)NCc1ccc(N2CCN(c3ccc(F)cc3)CC2)cc1 [compound 229, 6-Bromo-2-ethyl-N-(4-(4-(4-fluorophenyl)piperazin-1-yl)benzyl)imidazo[1,2-a]pyridine-3-carboxamide] | < 40% | 218.1 °C | – |
| CCc1nc2c(F)cccn2c1C(=O)NCc1ccc(Oc2ccc(OC(F)(F)F)cc2)cc1 [compound 224, 2-Ethyl-8-fluoro-N-(4-(4-(trifluoromethoxy)phenoxy)benzyl)imidazo[1,2-a]pyridine-3-carboxamide] | > 69% | 105.6 °C | < 1000 nM |
